Test results: the RepoRT retention time repository
Where a name gives a salt, the structure may show the parent alone.

Test: RP, Waters ACQUITY UPLC HSS T3, 150 × 2.1 mm, 1.8 µm, 45 °C, 0.6 mL/min, estimated dead time 0.55 min; A: water + 0.1% formic acid, pH 3; B: acetonitrile + 0.1% formic acid, pH 3; gradient (min/%B) 0/1 0.1/1 10/55 10.15/65 10.30/75 10.45/85 10.60/95 10.70/100 11/100 11.55/100 11.65/1 11.70/1 11.80/1 11.90/1 12/1 12.10/1 12.15/1 12.65/1
Conditions: stereoisomer not certain

`CC(C)CC(=O)NCC(=O)O` [N-Isovaleroylglycine] gave an LC retention time of 3.07 min.

Molecule `O=C(O)c1ccccc1O` [Salicylic acid] has an LC retention time of 5.48 min.

For `CC(=O)NC(CCC(N)=O)C(=O)O` (centres undefined) [N-Acetylglutamine], the LC retention time was 0.978 min.

Work on `O=C(O)c1cc(=O)[nH]c(=O)[nH]1` [Orotic acid] yielded an LC retention time of 0.81 min.

`O=c1ccn(C2OC(CO)C(O)C2O)c(=O)[nH]1` (centres undefined) [Uridine] gave an LC retention time of 1.38 min.

`CC(CCC(=O)O)C1CCC2C3CCC4CC(O)CCC4(C)C3CC(O)C12C` (centres undefined) [Deoxycholic acid] showed an LC retention time of 10.9 min.

Work on `CC(CCC(=O)NCCS(=O)(=O)O)C1CCC2C3CCC4CC(OS(=O)(=O)O)CCC4(C)C3CCC12C` (centres undefined) [Taurolithocholic acid 3-sulfate] yielded an LC retention time of 8.93 min.

With `Cn1c(=O)[nH]c2[nH]c(=O)n(C)c2c1=O` [1,7-Dimethyluric acid] the LC retention time was 2.57 min.

For `O=C(O)CCC(=O)O` [Succinic acid], the LC retention time was 1.37 min.

Molecule `CC(=O)Nc1ccc(OC2OC(C(=O)O)C(O)C(O)C2O)cc1` (centres undefined) [Acetaminophen glucuronide] has an LC retention time of 1.92 min.

Molecule `CC(C)Cc1ccc(C(C)C(=O)OC2OC(C(=O)O)C(O)C(O)C2O)cc1` (centres undefined) [Ibuprofen acyl glucuronide] has an LC retention time of 8.62 min.

Work on `O=S(=O)(O)Oc1ccc2[nH]ccc2c1` [5-Hydroxyindole sulfate] yielded an LC retention time of 2.81 min.

For `CC(=O)Nc1ccc(OS(=O)(=O)O)cc1` [Acetaminophen sulfate], the LC retention time was 2.26 min.

Molecule `COc1cc(CC(=O)O)ccc1O` [Homovanillic acid] has an LC retention time of 3.8 min.

For `O=C(O)c1ccc(CO)o1` [Sumiki's acid], the LC retention time was 2.1 min.

For `O=C(O)CCCCCCCC(=O)O` [Azelaic acid], the LC retention time was 5.48 min.

`O=S(=O)(O)Oc1c[nH]c2ccccc12` [Indoxyl sulfate] gave an LC retention time of 3.4 min.

For `CC(=O)NC(CCC(=O)O)C(=O)O` (centres undefined) [N-acetylglutamic acid], the LC retention time was 1.35 min.

Work on `O=c1[nH]cnc2c1ncn2C1OC(CO)C(O)C1O` (centres undefined) [Inosine] yielded an LC retention time of 1.61 min.

Work on `Nc1ncnc2c1ncn2C1OC2COP(=O)(O)OC2C1O` (centres undefined) [Adenosine 3',5'-cyclic monophosphate] yielded an LC retention time of 1.62 min.

For `O=C(O)CNC(=O)c1cccc(O)c1` [3-Hydroxyhippuric acid], the LC retention time was 2.73 min.

Work on `O=C(O)/C=C/c1cccc(O)c1` [m-Coumaric acid] yielded an LC retention time of 4.88 min.

Molecule `O=C1CCC(C(=O)O)N1` (centres undefined) [Pyroglutamic acid] has an LC retention time of 1.25 min.

For `CC(=CC(=O)O)C(=O)O` [Citraconic acid], the LC retention time was 1.73 min.

With `O=c1[nH]cnc2nc[nH]c12` [Hypoxanthine] the LC retention time was 1.2 min.

Molecule `CC(=O)C1CCC2C3CC=C4CC(OS(=O)(=O)O)CCC4(C)C3CCC12C` (centres undefined) [Pregnenolone sulfate] has an LC retention time of 9.81 min.

In the case of `CC(CCC(=O)O)C1CCC2C3C(=O)CC4CC(O)CCC4(C)C3CC(O)C12C` (centres undefined) [7-Ketodeoxycholic acid], the LC retention time was 8.65 min.

With `O=C(O)c1cc(O)ccc1O` [2,5-Dihydroxybenzoic acid] the LC retention time was 3.16 min.

Molecule `O=C(O)C(O)c1ccc(O)cc1` (centres undefined) [p-Hydroxymandelic acid] has an LC retention time of 1.57 min.

Molecule `O=C(O)CCCCC(=O)O` [Adipic acid] has an LC retention time of 2.59 min.

`O=C(O)CNC(=O)c1ccccc1O` [Salicyluric acid] gave an LC retention time of 4.39 min.

For `O=C(O)C(O)Cc1c[nH]c2ccccc12` (centres undefined) [Indolelactic acid], the LC retention time was 4.86 min.

In the case of `O=C(O)CCCC(=O)O` [Glutaric acid], the LC retention time was 1.86 min.

`CC(CCC(=O)NCC(=O)O)C1CCC2C3CCC4CC(OS(=O)(=O)O)CCC4(C)C3CCC12C` (centres undefined) [Glycolithocholic acid-3-sulfate] showed an LC retention time of 10.2 min.

`O=C1O[C@H]([C@@H](O)CO)C(O)=C1OS(=O)(=O)O` [L-Ascorbic acid 2-sulfate] gave an LC retention time of 0.71 min.

Molecule `O=C(O)CC(O)C(=O)O` (centres undefined) [Malic acid] has an LC retention time of 0.752 min.

In the case of `CC(C)(O)CC(=O)O` [3-Hydroxyisovaleric acid], the LC retention time was 2.1 min.

With `CC(=O)NCCC(=O)NC(Cc1cnc[nH]1)C(=O)O` [N-Acetyl-L-carnosine] the LC retention time was 0.92 min.

Molecule `CC(=O)NC(Cc1ccc(O)cc1)C(=O)O` (centres undefined) [N-Acetyltyrosine] has an LC retention time of 2.97 min.

For `CCc1ccc(OS(=O)(=O)O)cc1` [4-Ethylphenylsulfate], the LC retention time was 5.73 min.

For `O=C(O)Cc1ccc(O)cc1` [4-Hydroxyphenylacetic acid], the LC retention time was 3.41 min.

Work on `O=C(O)CC(C(=O)O)C(O)C(=O)O` (centres undefined) [Isocitric acid] yielded an LC retention time of 0.77 min.

`CC(=O)NC(Cc1ccccc1)C(=O)O` (centres undefined) [N-Acetylphenylalanine] showed an LC retention time of 4.66 min.

`CC(CCC(=O)NCC(=O)O)C1CCC2C3C(O)CC4CC(O)CCC4(C)C3CCC12C` (centres undefined) [Glycoursodeoxycholic acid] showed an LC retention time of 8.4 min.

`CC(CO)C(=O)O` (centres undefined) [3-Hydroxyisobutyric acid] gave an LC retention time of 1.59 min.

With `O=C(O)c1cc(O)c(O)c(O)c1` [Gallic acid] the LC retention time was 1.72 min.

For `O=C(O)C=Cc1ccc(O)cc1` [4-Hydroxycinnamic acid], the LC retention time was 4.35 min.

Work on `CC(CCC(=O)O)C(=O)O` (centres undefined) [2-Methylglutaric acid] yielded an LC retention time of 2.8 min.

`NCCc1ccc(O)c(OS(=O)(=O)O)c1` [Dopamine 3-O-sulfate] gave an LC retention time of 1.56 min.

In the case of `Cc1ccc(OS(=O)(=O)O)cc1` [p-Cresol sulfate], the LC retention time was 4.2 min.

In the case of `O=C(O)C1OC(Oc2c[nH]c3ccccc23)C(O)C(O)C1O` (centres undefined) [Indoxyl glucuronide], the LC retention time was 3.39 min.

Work on `Nc1c(C(=O)NC(CC(=O)O)C(=O)O)ncn1C1OC(CO)C(O)C1O` (centres undefined) [Succinylaminoimidazole carboxamide riboside] yielded an LC retention time of 1.65 min.

In the case of `Cn1c(=O)[nH]c(=O)c2c1[nH]c(=O)n2C` [3,7-Dimethyluric acid], the LC retention time was 1.94 min.

For `CC(=O)NC(CC(=O)O)C(=O)O` (centres undefined) [N-Acetylaspartic acid], the LC retention time was 1 min.

With `Cc1cc2nc3c(=O)[nH]c(=O)nc-3n(CC(O)C(O)C(O)CO)c2cc1C` (centres undefined) [Riboflavin] the LC retention time was 3.82 min.

`CCCc1oc(CCC(=O)O)c(C(=O)O)c1C` [3-Carboxy-4-methyl-5-propyl-2-furanpropionic acid (CMPF)] gave an LC retention time of 8.1 min.

For `Cn1c(=O)c2c([nH]c(=O)n2C)n(C)c1=O` [1,3,7-Trimethyluric acid], the LC retention time was 2.95 min.

`CC12CCC3C(CC=C4CC(OC5OC(C(=O)O)C(O)C(O)C5O)CCC43C)C1CCC2=O` (centres undefined) [Dehydroisoandrosterone 3-glucuronide] gave an LC retention time of 7.43 min.

`Cn1c[n+](C2OC(CO)C(O)C2O)c2nc(N)[nH]c(=O)c21` (centres undefined) [7-Methylguanosine] gave an LC retention time of 2.05 min.

With `CC(C)C(O)C(=O)O` (centres undefined) [2-Hydroxy-3-methylbutyric acid] the LC retention time was 2.74 min.

`O=C(O)CC(Nc1ncnc2c1ncn2C1OC(CO)C(O)C1O)C(=O)O` (centres undefined) [Succinyladenosine] showed an LC retention time of 2.31 min.

With `O=c1[nH]c(=O)c2ncn(C3OC(CO)C(O)C3O)c2[nH]1` (centres undefined) [Xanthosine] the LC retention time was 1.83 min.

For `COc1cc(C(O)C(=O)O)ccc1O` (centres undefined) [Vanillylmandelic acid], the LC retention time was 1.97 min.

Work on `O=C(O)c1c(O)cccc1O` [2,6-Dihydroxybenzoic acid] yielded an LC retention time of 3.76 min.

Molecule `CC(C)(CO)C(O)C(=O)NCCC(=O)O` (centres undefined) [Pantothenic acid] has an LC retention time of 2.31 min.

Molecule `O=C(O)Cc1cccc(O)c1` [3-Hydroxyphenylacetic acid] has an LC retention time of 3.74 min.

Molecule `O=C(O)CC(CC(=O)O)C(=O)O` [1,2,3-Propanetricarboxylic acid] has an LC retention time of 1.38 min.

`O=C(O)CCCCCC(=O)O` [Pimelic acid] showed an LC retention time of 3.46 min.

`O=S(=O)(O)Oc1ccccc1` [Phenol sulfate] showed an LC retention time of 3.01 min.

For `Cc1ccc(C(C)C)c(OS(=O)(=O)O)c1` [Thymol Sulfate], the LC retention time was 7.37 min.

`O=C(O)Cc1ccccc1O` [2-Hydroxyphenylacetic acid] gave an LC retention time of 4.11 min.

`CC1=CC(=O)NS(=O)(=O)O1` [Acesulfame] showed an LC retention time of 1.9 min.

Work on `CC(O)C1CCC2C3CCC4CC(OC5OC(C(=O)O)C(O)C(O)C5O)CCC4(C)C3CCC12C` (centres undefined) [Pregnanediol-3-glucuronide] yielded an LC retention time of 9.23 min.

Molecule `O=C(O)CNC(=O)c1ccc(O)cc1` [4-Hydroxyhippuric acid] has an LC retention time of 2.45 min.

Work on `Nc1nc2c(ncn2C2OC(CO)C(O)C2O)c(=O)[nH]1` (centres undefined) [Guanosine] yielded an LC retention time of 1.43 min.

In the case of `O=C(O)c1ccc(O)cc1` [4-Hydroxybenzoic acid], the LC retention time was 3.16 min.

In the case of `CC(CCC(=O)NCC(=O)O)C1CCC2C3CCC4CC(OS(=O)(=O)O)CCC4(C)C3CC(O)C12C` (centres undefined) [Glycodeoxycholic acid-3-sulfate], the LC retention time was 8.94 min.

Molecule `O=C(O)CNC(=O)Cc1ccccc1` [Phenylacetylglycine] has an LC retention time of 4.01 min.

Work on `O=c1[nH]c(=O)c2[nH]c(=O)[nH]c2[nH]1` [Uric acid] yielded an LC retention time of 1.12 min.

With `OCC1OC(OC2(CO)OC(CO)C(O)C2O)C(O)C(O)C1O` (centres undefined) [Sucrose] the LC retention time was 0.68 min.

Work on `CC(C)CC(=O)C(=O)O` [Ketoleucine] yielded an LC retention time of 3.52 min.

With `CC=C(C)C(=O)NCC(=O)O` [Tiglylglycine] the LC retention time was 2.92 min.

In the case of `CC(=O)NC(CCCN=C(N)N)C(=O)O` [Na-Acetyl-L-arginine], the LC retention time was 0.91 min.

Molecule `CC(O)(CC(=O)O)CC(=O)O` [3-Hydroxy-3-methylglutaric acid] has an LC retention time of 1.55 min.

`CC(CCC(=O)O)C1CCC2C3C(O)CC4CC(O)CCC4(C)C3CC(O)C12C` (centres undefined) [Cholic acid] showed an LC retention time of 9.75 min.

For `Cn1c(=O)c2[nH]cnc2n(C)c1=O` [Theophylline], the LC retention time was 2.76 min.

Work on `Cc1ccc(OC2OC(C(=O)O)C(O)C(O)C2O)cc1` (centres undefined) [p-Cresol glucuronide] yielded an LC retention time of 4.3 min.

`O=C(O)C=C(CC(=O)O)C(=O)O` [Cis-aconitic acid] showed an LC retention time of 1.3 min.

`NC(Cc1ccc(OS(=O)(=O)O)cc1)C(=O)O` (centres undefined) [O-Sulfotyrosine] showed an LC retention time of 1.5 min.
